Each structure is given as a SMILES string.

Chain of GCN2 (Q9P2K8 whole entry): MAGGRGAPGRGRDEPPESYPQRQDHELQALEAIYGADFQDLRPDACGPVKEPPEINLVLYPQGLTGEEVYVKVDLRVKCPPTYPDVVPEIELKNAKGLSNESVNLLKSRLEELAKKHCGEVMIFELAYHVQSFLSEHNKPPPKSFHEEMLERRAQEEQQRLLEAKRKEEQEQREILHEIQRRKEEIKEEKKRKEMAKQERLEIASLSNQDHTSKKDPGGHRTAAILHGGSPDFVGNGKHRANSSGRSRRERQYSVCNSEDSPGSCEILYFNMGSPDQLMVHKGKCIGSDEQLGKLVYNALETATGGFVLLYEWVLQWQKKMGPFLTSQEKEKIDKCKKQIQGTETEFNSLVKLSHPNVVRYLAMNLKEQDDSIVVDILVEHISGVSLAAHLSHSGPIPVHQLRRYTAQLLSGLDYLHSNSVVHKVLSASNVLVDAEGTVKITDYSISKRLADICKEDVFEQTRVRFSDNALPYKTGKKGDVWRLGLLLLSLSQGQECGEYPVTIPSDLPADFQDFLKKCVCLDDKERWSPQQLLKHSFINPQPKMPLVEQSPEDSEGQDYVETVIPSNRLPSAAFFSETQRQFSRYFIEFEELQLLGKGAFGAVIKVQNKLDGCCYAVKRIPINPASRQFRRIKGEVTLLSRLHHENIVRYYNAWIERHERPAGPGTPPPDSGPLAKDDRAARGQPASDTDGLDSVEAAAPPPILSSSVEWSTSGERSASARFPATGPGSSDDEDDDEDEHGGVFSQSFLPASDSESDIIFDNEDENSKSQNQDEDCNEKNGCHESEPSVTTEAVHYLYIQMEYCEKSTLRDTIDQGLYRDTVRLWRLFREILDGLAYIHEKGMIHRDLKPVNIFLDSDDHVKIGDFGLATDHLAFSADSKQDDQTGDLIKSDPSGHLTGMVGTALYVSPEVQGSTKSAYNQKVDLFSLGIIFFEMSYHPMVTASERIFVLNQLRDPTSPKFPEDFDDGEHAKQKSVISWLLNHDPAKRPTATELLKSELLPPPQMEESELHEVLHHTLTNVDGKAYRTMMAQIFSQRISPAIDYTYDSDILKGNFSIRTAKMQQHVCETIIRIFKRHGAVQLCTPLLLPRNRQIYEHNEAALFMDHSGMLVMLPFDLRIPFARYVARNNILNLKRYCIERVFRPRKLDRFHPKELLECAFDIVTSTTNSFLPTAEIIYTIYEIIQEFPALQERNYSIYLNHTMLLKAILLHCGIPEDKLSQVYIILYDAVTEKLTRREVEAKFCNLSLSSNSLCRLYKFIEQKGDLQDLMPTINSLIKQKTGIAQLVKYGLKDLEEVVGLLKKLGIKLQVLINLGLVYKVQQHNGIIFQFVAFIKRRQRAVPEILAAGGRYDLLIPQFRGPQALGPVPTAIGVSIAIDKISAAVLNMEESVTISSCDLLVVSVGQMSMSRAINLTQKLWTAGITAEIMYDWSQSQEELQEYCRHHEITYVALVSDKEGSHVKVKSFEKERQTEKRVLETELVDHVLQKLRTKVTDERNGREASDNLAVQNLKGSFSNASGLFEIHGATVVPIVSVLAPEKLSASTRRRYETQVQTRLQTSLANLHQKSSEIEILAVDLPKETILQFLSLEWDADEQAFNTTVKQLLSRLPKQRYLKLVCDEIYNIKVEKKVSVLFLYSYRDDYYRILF

The first experiment has as its target GCN2 (Homo sapiens, UniProt Q9P2K8). In words: GCN2 enzymatic endpoint assay: phosphorylation of GFP-eIF2α measured by TR-FRET (Lanthascreen). The following applies: GCN2 biochemical IC50; 4 nM GCN2, 2 μM ATP, 80 nM GFP-eIF2α, 90 min RT; read-out: GCN2 activity. It counts as biochemical. The essentials: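 Read-out is the TR-FRET ratio of acceptor signal at 520 nm to terbium donor at 495 nm, rising with antibody binding to phosphorylated GFP-eIF2α. Endpoint format: 2 μM ATP, 80 nM substrate, 90 minutes at room temperature, EDTA stop.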
On the technique in general: In TR-FRET formats the signal depends on donor and acceptor labels being close together.
For the compound `CNC(=O)[C@@H]1CC[C@@H](Nc2ncc3c(Br)nn(-c4cc(F)c5ncccc5c4)c3n2)C1` [Example 8, (1R,3R)-3-((3-bromo-1-(8-fluoroquinolin-6-yl)-1H-pyrazolo[3,4-d]pyrimidin-6-yl)amino)-N-methylcyclopentane-1-carboxamide], the IC50 lay in the range of 25 to 200 nM.

As to `C[C@H](N)c1cc(Cl)cc(-n2nc(Br)c3cnc(N[C@@H]4CC[C@@](C)(O)C4)nc32)c1` [Example 75, (1R,3R)-3-((1-(3-((S)-1-aminoethyl)-5-chlorophenyl)-3-bromo-1H-pyrazolo[3,4-d]pyrimidin-6-yl)amino)-1-methylcyclopentan-1-ol], the IC50 was 25 to 200 nM.

As for `Brc1nn(-c2ccc3ncccc3c2)c2nc(N[C@@H]3CCC(N4CCOCC4)C3)ncc12` (mixture of isomers) [Example 7, 3-bromo-N-(3-morpholinocyclopentyl)-1-(quinolin-6-yl)-1H-pyrazolo[3,4-d]pyrimidin-6-amine], the IC50 was in the range of 25 to 200 nM.

Turning to `CNS(=O)(=O)[C@@H]1CC[C@@H](Nc2ncc3c(Br)nn(-c4ccc5ncccc5c4)c3n2)C1` (single isomer, unassigned) [Example 16], the IC50 lay in the range of 25 to 200 nM.

As for `COCCNC(=O)[C@@H]1CC[C@@H](Nc2ncc3c(Cl)nn(-c4ccc5ncccc5c4)c3n2)C1` [Example 14, (1R,3R)-3-((3-chloro-1-(quinolin-6-yl)-1H-pyrazolo[3,4-d]pyrimidin-6-yl)amino)-N-(2-methoxyethyl)cyclopentane-1-carboxamide], the IC50 was under 25 nM.

As to `CNC(=O)[C@]1(C)CC[C@@H](Nc2ncc3c(Br)nn(-c4ccc(-c5ncco5)c(CCN(C)C)c4)c3n2)C1` [Example 62, (1R,3R)-3-((3-bromo-1-(3-(2-(dimethylamino)ethyl)-4-(oxazol-2-yl)phenyl)-1H-pyrazolo[3,4-d]pyrimidin-6-yl)amino)-N,1-dimethylcyclopentane-1-carboxamide; 2,2,2-trifluoroacetic acid], the IC50 was 25 to 200 nM.

Consider `CNC(=O)[C@]1(C)CC[C@@H](Nc2ncc3c(Br)nn(-c4cc(CNS(C)(=O)=O)c5ncccc5c4)c3n2)C1` [Example 33, (1R,3R)-3-((3-bromo-1-(8-(methylsulfonamidomethyl)quinolin-6-yl)-1H-pyrazolo[3,4-d]pyrimidin-6-yl)amino)-N,1-dimethylcyclopentane-1-carboxamide; 2,2,2-trifluoroacetic acid], for which the IC50 is under 25 nM.

The experiment is the same for the next values; noted with them: tested as described in Example 77; compound and/or hydrochloride, dihydrochloride or trifluoroacetic acid salt; read-out: IC 50 Activity.
On to `CNC(=O)[C@]1(C)CC[C@@H](Nc2ncc3c(Br)nn(-c4cc(NC(=O)CCN)c5ncccc5c4)c3n2)C1` [(1R,3R)-3-[[1-[8-(3-aminopropanoylamino)-6-quinolyl]-3-bromo-pyrazolo[3,4-d]pyrimidin-6-yl]amino]-N,1-dimethyl-cyclopentanecarboxamide], for which the IC50 was under 25 nM.

For `COCCNC(=O)[C@@H]1CC[C@@H](Nc2ncc3c(Br)nn(-c4ccc5cccnc5c4)c3n2)C1` [(1R,3R)-3-((3-bromo-1-(quinolin-7-yl)-1H-pyrazolo[3,4-d]pyrimidin-6-yl)amino)-N-(2-methoxyethyl)cyclopentane-1-carboxamide], the IC50 is 200 to 500 nM.

As to `O=C1OCC[C@]12CC[C@@H](Nc1ncc3c(Br)nn(-c4cc(F)c5ncccc5c4)c3n1)C2` [(5R,7R)-7-((3-bromo-1-(8-fluoroquinolin-6-yl)-1H-pyrazolo[3,4-d]pyrimidin-6-yl)amino)-2-oxaspiro[4.4]nonan-1-one], the IC50 was under 25 nM.

For the compound `C[C@H](N)c1cc(Cl)cc(-n2nc(Br)c3cnc(N[C@@H]4CC[C@@](C)(C(=O)NCC(F)F)C4)nc32)c1` [(1R,3R)-3-[[1-[3-[(1S)-1-aminoethyl]-5-chloro-phenyl]-3-bromo-pyrazolo[3,4-d]pyrimidin-6-yl]amino]-N-(2,2-difluoro-ethyl)-1-methyl-cyclopentanecarboxamide], the IC50 lay within 25 to 200 nM.

Regarding `CNC(=O)[C@]1(C)CC[C@@H](Nc2ncc3c(Br)nn(-c4ccc(-c5ncco5)c(C5CCNCC5)c4)c3n2)C1` [(1R,3R)-3-[[3-bromo-1-[4-oxazol-2-yl-3-(4-piperidyl)phenyl]pyrazolo[3,4-d]pyrimidin-6-yl]amino]-N,1-dimethyl-cyclopentanecarboxamide], the IC50 was in the range of 25 to 200 nM.

Turning to `CNC(=O)[C@]1(C)CC[C@@H](Nc2ncc3c(Br)nn(-c4cc(CS(C)(=O)=O)c5nccnc5c4)c3n2)C1` [(1R,3R)-3-[[3-bromo-1-[8-(methyl-sulfonylmethyl)quinoxalin-6-yl]pyrazolo [3,4-d]pyrimidin-6-yl]amino]-N,1-dimethyl-cyclopentanecarboxamide], the IC50 lay in the range of 25 to 200 nM.

In the case of `CNC(=O)[C@]1(C)CC[C@@H](Nc2ncc3c(Br)nn(-c4cc(C#N)c5nc(C)ccc5c4)c3n2)C1` [(1R,3R)-3-[[3-bromo-1-(8-cyano-2-methyl-6-quinolyl)pyrazolo[3,4-d]pyrimidin-6-yl]amino]-N,1-dimethyl-cyclopentane-carboxamide], the IC50 is under 25 nM.

Turning to `CNC(=O)C1(C)CC[C@@H](Nc2ncc3c(Br)nn(-c4cccc(C(C)(C)O)c4)c3n2)C1` (stereo partly drawn) [(3R)-3-[[3-bromo-1-[3-(1-hydroxy-1-methyl-ethyl)phenyl]pyrazolo[3,4-d]pyrimidin-6-yl]amino]-N,1-dimethyl-cyclopentane-carboxamide], the IC50 was in the range of 25 to 200 nM.

Consider `Cc1nnc(-c2ccc(-n3nc(Br)c4cnc(NC5CC(P(C)(C)=O)C5)nc43)cc2CCS(C)(=O)=O)s1` (stereo not drawn) [3-bromo-N-(3-dimethylphosphorylcyclo-butyl)-1-[3-(2-methylsulfonylethyl)-4-(5-methyl-1,3,4-thiadiazol-2-yl)phenyl] pyrazolo[3,4-d]pyrimidin-6-amine], for which the IC50 was in the range of 25 to 200 nM.

Regarding `CC[C@@H](N)c1cc(Cl)cc(-n2nc(Br)c3cnc(N[C@@H]4CC[C@@](C)(C(=O)NC)C4)nc32)c1`, the IC50 was under 25 nM.

As for `CNC(=O)[C@]1(C)CC[C@@H](Nc2ncc3c(Br)nn(-c4cc(C#N)cc(CO)c4)c3n2)C1` [(1R,3R)-3-[[3-bromo-1-[3-cyano-5-(hydroxymethyl)phenyl]pyrazolo[3,4-d]pyrimidin-6-yl]amino]-N,1-dimethyl-cyclopentanecarboxamide], the IC50 is 25 to 200 nM.

As to `CC(C)(O)CNC(=O)[C@@H]1CC[C@@H](Nc2ncc3c(Br)nn(-c4cc(F)c5ncccc5c4)c3n2)C1`, the IC50 is 25 to 200 nM.

As for `CNC(=O)[C@]1(C)CC[C@@H](Nc2ncc3c(Br)nn(-c4ccc5c(c4)CCNC5=O)c3n2)C1` [(1R,3R)-3-[[3-bromo-1-(1-oxo-3,4-dihydro-2H-isoquinolin-6-yl)pyrazolo[3,4-d]pyrimidin-6-yl]amino]-N,1-dimethyl-cyclopentanecarboxamide], the IC50 was in the range of 25 to 200 nM.

As to `CNC(=O)[C@@]1(C)CC[C@@H](Nc2ncc3c(Br)nn(-c4ccc(OCCO)cc4)c3n2)C1` [(1S,3R)-3-[[3-bromo-1-[4-(2-hydroxy-ethoxy)phenyl]pyrazolo[3,4-d]pyrimidin-6-yl]amino]-N,1-dimethyl-cyclopentane-carboxamide], the IC50 lay within 25 to 200 nM.

For the compound `O=C([C@@H]1CC[C@@H](Nc2ncc3c(Br)nn(-c4ccc5ncccc5c4)c3n2)C1)N1CCN[C@@H](CCO)C1` [((1R,3R)-3-((3-bromo-1-(quinolin-6-yl)-1H-pyrazolo[3,4-d]pyrimidin-6-yl)amino)cyclo-pentyl)((S)-3-(2-hydroxyethyl)piperazin-1-yl) methanone], the IC50 is 25 to 200 nM.

On to `C[C@]1(C(=O)N2CNC(=O)C2)CC[C@@H](Nc2ncc3c(Br)nn(-c4cc(F)c5ncccc5c4)c3n2)C1` [1-[(1S,3R)-3-[[3-bromo-1-(8-fluoro-6-quinolyl)pyrazolo[3,4-d]pyrimidin-6-yl]amino]-1-methyl-cyclopentanecarbonyl] imidazolidin-4-one], for which the IC50 fell in the range of 25 to 200 nM.

Regarding `CNC(=O)[C@]1(C)CC[C@@H](Nc2ncc3c(Br)nn(-c4cc(CC5(N)CC5)c5ncccc5c4)c3n2)C1` [(1R,3R)-3-[[1-[8-[(1-aminocyclopropyl)methyl]-6-quinolyl]-3-bromo-pyrazolo [3,4-d]pyrimidin-6-yl]amino]-N,1-dimethyl-cyclopentanecarboxamide], the IC50 is 25 to 200 nM.

As to `CNC(=O)[C@]1(C)CC[C@@H](Nc2ncc3c(Br)nn(-c4ccc5nc(NC(C)=O)ncc5c4)c3n2)C1` [(1R,3R)-3-[[1-(2-acetamidoquinazolin-6-yl)-3-bromo-pyrazolo[3,4-d]pyrimidin-6-yl]amino]-N,1-dimethyl-cyclopentane-carboxamide; 2,2,2-trifluoroacetic acid], the IC50 was in the range of 25 to 200 nM.

For `CNC(=O)[C@]1(C)CC[C@@H](Nc2ncc3c(Br)nn(-c4ccc5ncc(C(C)(C)O)cc5c4)c3n2)C1` [(1R,3R)-3-[[3-bromo-1-[3-(1-hydroxy-1-methyl-ethyl)-6-quinolyl]pyrazolo[3,4-d]pyrimidin-6-yl]amino]-N,1-dimethyl-cyclopentanecarboxamide], the IC50 fell in the range of 25 to 200 nM.

For the compound `CNC(=O)[C@@]1(C)CC[C@@H](Nc2ncc3c(Br)nn(-c4ccc5nccnc5c4)c3n2)C1` [(1S,3R)-3-((3-bromo-1-(quinoxalin-6-yl)-1H-pyrazolo[3,4-d]pyrimidin-6-yl)amino)-N,1-dimethylcyclopentane-1-carboxamide], the IC50 was 500 to 1000 nM.

With `CNC(=O)[C@]1(C)CC[C@@H](Nc2ncc3c(Br)nn(-c4cc(Cl)cc(CCC#N)c4)c3n2)C1`, the IC50 was 25 to 200 nM.

With `N#CC1CN(C(=O)[C@@H]2CC[C@@H](Nc3ncc4c(Br)cn(-c5cc(F)c6ncccc6c5)c4n3)C2)C1` [1-((1R,3R)-3-((5-bromo-7-(8-fluoroquinolin-6-yl)-7H-pyrrolo[2,3-d]pyrimidin-2-yl)amino)cyclopentane-1-carbonyl)azetidine-3-carbonitrile], the IC50 was under 25 nM.

Turning to `CNC(=O)[C@]1(C)CC[C@@H](Nc2ncc3c(Br)nn(-c4cc(NC(=O)CCCN)c5ncccc5c4)c3n2)C1` [(1R,3R)-3-[[1-[8-(4-aminobutanoylamino)-6-quinolyl]-3-bromo-pyrazolo[3,4-d]pyrimidin-6-yl]amino]-N,1-dimethyl-cyclopentanecarboxamide], the IC50 lay in the range of 25 to 200 nM.

These data come from patent publication US11046699B2, “Pyrazolo-pyrimidin-amino-cycloalkyl compounds and their therapeutic uses” (RAPT THERAPEUTICS, INC., priority 2018, dated 2021).
